This experiment concerns souris. In words: Analgesic activity, Siegmund test (phenyl-p-benzoquinone-induced stretching). To be noted: Mus musculus; oral, 1 hour before i.p. phényl-p-benzoquinone 0,02 %; stretches counted between minutes 5 and 10; read-out: ED₅₀, dose entraînant une activité de 50%. Type of experiment: in vivo. The source says:
L'activité sur la douleur a été recherchée chez la souris (23-25 g) selon un protocole dérivé de la technique décrite par SIEGMUND (SIEGMUND E.A., R.A. CADMUS & GOLU, J. Pharm. Exp. Ther. 119, 1874, 1954). Les souris, réparties par randomisation en lots de 12 animaux, ont reçu le traitement par voie orale (excipient pour les témoins) 1 heure avant l'injection intra-péritonéale d'une solution hydroalcoolique de phényl-p-benzoquinone (Sigma) à 0,02 %. Les étirements sont dénombrés entre la 5ème et 10ème minute après l'injection.
Le pourcentage d'activité obtenu a été évalué pour chaque dose (% de diminution du nombre d'étirements chez les traités par rapport aux témoins). Une ED₅₀, dose entraînant une activité de 50%, a été déterminée pour chaque produit.

The record followed here is patent publication EP0390673A1, “5-Acyl-benzoxazolinone derivatives, processes for their preparation and pharmaceutical compositions containing them” (ADIR ET COMPAGNIE, priority 1989, dated 1990).

Consider `O=C(c1ccccc1)c1ccc2oc(=O)[nH]c2c1` [Exemple 1, BENZOYL-5 BENZOXAZOLINONE], for which the ED50 was around 5 mg/kg.
